Measured values as given in PubChem BioAssay (NCI).
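Growth conditions: 96-well plates. Treatment: test compound, 48 hours, 5 concentrations. Analysis: linear interpolation between bracketing concentrations; unreached endpoints set to highest concentration. TGI is the concentration that stops growth completely.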

Tests used:
Assay in all cases: NCI-60 cell line screen, 48 h
[1] = test system: RXF-631 renal
[2] = test system: M19-MEL melanoma
[3] = test system: DMS 114 small cell lung
[4] = test system: DMS 273 small cell lung
[5] = test system: XF 498 CNS
[6] = test system: LXFL 529 NSCLC
[7] = test system: DLD-1 colon
[8] = test system: SNB-78 CNS
[9] = test system: HOP-18 NSCLC

| SMILES | TGI [1] | TGI [2] | TGI [3] | TGI [4] | TGI [5] | TGI [6] | TGI [7] | TGI [8] | TGI [9] |
| --- | --- | --- | --- | --- | --- | --- | --- | --- | --- |
| O=[N+]([O-])c1c(C=Nc2ccccc2)oc(-c2ccc3c(c2)OCO3)c1-c1ccc2c(c1)OCO2 | > 100 µM | > 100 µM | > 100 µM | > 100 µM | > 100 µM | > 100 µM | > 100 µM | > 100 µM |  |
| Brc1cc2c(cc1C1SCCS1)OCO2 | > 100 µM |  | > 100 µM | > 100 µM |  | > 100 µM | > 100 µM | > 100 µM | > 100 µM |
| COc1ccc(C=C(c2ccc(OCc3ccccc3)cc2)c2ccc(OCc3ccccc3)cc2)cc1 | > 100 µM | > 100 µM | > 100 µM | > 100 µM | > 100 µM | > 100 µM | > 100 µM | > 100 µM | > 100 µM |
| NC(N)=NS(=O)(=O)c1ccc(Nc2c3ccccc3nc3c(C(=O)Nc4ccc(S(N)(=O)=O)cc4)ccc(Cl)c23)cc1 | > 100 µM | > 100 µM | > 100 µM | > 100 µM | > 100 µM | > 100 µM | > 100 µM | > 100 µM | > 100 µM |
| N#CCC(=O)N/N=C(\C(=O)Nc1ccc(Cl)c(Cl)c1)C1CN(c2ccccc2)N=C1N (configuration not stated) |  | > 100 µM | > 100 µM | > 100 µM |  | > 100 µM | > 100 µM | > 100 µM | > 100 µM |
| Cc1nn(-c2nc3ccccc3s2)c2c1C(=O)c1ccccc1-2 |  | > 100 µM | > 100 µM | > 100 µM |  | > 100 µM | > 100 µM | > 100 µM | > 100 µM |
| COc1c(C)cc2c(c1O)C1NC(C2)[C@H](O)N2C3COC(=O)[C@@]4(CS[C@@H](c5c(OC(C)=O)c(C)c6c(c53)OCO6)C12)NCCC1=C4NC2C=CC=CC12 (some centres not stated) | 0.167 µM | < 0.01 µM | < 0.01 µM | < 0.01 µM |  | 0.0117 µM | 0.0498 µM |  |  |
| CCOC(=O)c1ccc(NC(=O)SCCC(=O)O)cc1 |  |  | > 100 µM | > 100 µM |  | > 100 µM | > 100 µM | > 100 µM |  |
| CCOP(=O)(OCC)C(C(=O)OC)C(=O)C(=O)Nc1c(C)cc(Br)cc1C (configuration not stated) | > 100 µM | > 100 µM | > 100 µM | > 100 µM | > 100 µM | > 100 µM | > 100 µM | > 100 µM | > 100 µM |
| Cc1nc2ccccc2c(=O)n1NC(=S)Nc1ccc(Cl)cc1[N+](=O)[O-] |  | > 100 µM | > 100 µM |  |  | > 100 µM |  |  |  |
| COc1cc(/C=C\c2cccnc2)cc(OC)c1OC |  | > 100 µM | > 100 µM | > 100 µM | > 100 µM | > 100 µM | > 100 µM | > 100 µM | > 100 µM |
| COc1ccccc1/C=C1\CCC(CCN2CCOCC2)C1=O (configuration not stated) | > 100 µM | > 100 µM | > 100 µM | > 100 µM | > 100 µM | > 100 µM | > 100 µM | > 100 µM | > 100 µM |
| COc1cc(/C=C2\C(=O)N(C(=O)c3ccc(NC(C)=O)cc3)N=C2C)ccc1O |  | > 100 µM | > 100 µM | > 100 µM |  |  | > 100 µM | > 100 µM | > 100 µM |
| O=c1[nH]cnc2c1CCCN2 |  | > 100 µM | > 100 µM |  |  | > 100 µM | > 100 µM | > 100 µM | > 100 µM |
| CN(Cc1ccccc1)C(=NC#N)N(C)Cc1ccccc1 |  | > 100 µM |  | > 100 µM |  | > 100 µM | > 100 µM | > 100 µM |  |
| CC(=O)c1cccc(NC(=O)C(=O)Nn2c(N)nnc2N)c1 |  | > 100 µM | > 100 µM | > 100 µM | > 100 µM | > 100 µM | > 100 µM | > 100 µM | > 100 µM |
| COc1ccc2[nH]cc(CCNC(=O)[C@](O)(Cc3cn(C)c4ccccc34)[C@@]3(O)OCC(O)C3O)c2c1 (some centres not stated) | > 100 µM | > 100 µM | > 100 µM | > 100 µM | > 100 µM | > 100 µM | > 100 µM |  | > 100 µM |
| CC(C)N1CN(C(C(=O)N[C@@H]2C(=O)N3C2SC(C)(C)C3C(=O)O)c2ccc(O)cc2)CSC1=S (some centres not stated) |  | > 100 µM | > 100 µM | > 100 µM | > 100 µM | > 100 µM | > 100 µM | > 100 µM | > 100 µM |
| CN1Cc2cc3c(cc2-c2ccccc21)OCO3 |  | > 100 µM |  | > 100 µM | > 100 µM | > 100 µM | > 100 µM | > 100 µM | > 100 µM |
| Cc1ccc(C(=O)OCC(C)C)cc1N=NN(C)C |  | > 100 µM |  | > 100 µM |  | > 100 µM | > 100 µM | > 100 µM |  |
| Clc1cc2n[se]nc2cc1Cl | > 100 µM | > 100 µM | > 100 µM | > 100 µM | > 100 µM | > 100 µM | > 100 µM | > 100 µM | > 100 µM |
| CCCCCCCC(=O)OCC1OC(OC)C(NC(=O)N(CCCl)N=O)C(O)C1O (configuration not stated) | 19 µM | 49.2 µM | 29.6 µM | 15.9 µM | 30.6 µM | 42 µM | 28.6 µM | 79.6 µM | 72.3 µM |
| CCOc1ccc(NC(=O)C2=C(C)NC(C)=C(C(=O)Nc3ccc(OCC)cc3)C2c2ccccc2)cc1 | > 100 µM | > 100 µM | > 100 µM | > 100 µM | > 100 µM | > 100 µM | > 100 µM | > 100 µM |  |
| O=C1C2CN(Cc3ccccc3)CC1CN(CC1CC1)C2 |  | > 100 µM | > 100 µM | > 100 µM | > 100 µM | > 100 µM |  |  | > 100 µM |
